Results: publication PMC11602115 (Journal of Medicinal Chemistry, 2017)
Like-named read-outs stand apart in the source and are kept apart here.

How the values were obtained:
human DP1 receptor = target: T1, human DP1 receptor (Homo sapiens, UniProt Q13258); test: HTRF cAMP assay, recombinant human DP1 receptor in CHO-K1 cells; assay type: cell-based; details: for Emax: CHO-K1, intrinsic activity relative to 1 μM PGD2, read-out: hDP1 % IA
T1 construct: expressed in transfected cells
T1 sequence (Q13258 1-359): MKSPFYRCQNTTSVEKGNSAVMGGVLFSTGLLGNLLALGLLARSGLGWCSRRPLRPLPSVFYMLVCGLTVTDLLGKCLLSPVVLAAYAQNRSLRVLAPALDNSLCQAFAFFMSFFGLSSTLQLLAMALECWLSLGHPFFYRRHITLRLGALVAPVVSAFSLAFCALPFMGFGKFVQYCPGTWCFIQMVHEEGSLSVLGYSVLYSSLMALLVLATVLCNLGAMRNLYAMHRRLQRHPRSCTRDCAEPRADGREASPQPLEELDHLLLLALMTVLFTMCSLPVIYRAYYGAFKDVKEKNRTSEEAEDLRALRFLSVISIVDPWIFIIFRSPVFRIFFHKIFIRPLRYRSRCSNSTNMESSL
Method: (§1) The new compounds were tested for functional agonist activity in a standard (Cisbio) cAMP assay using recombinant IP or DP1 receptors stably expressed in CHO-K1 cells. Clonal cell lines were derived following standard protocols, but receptor expression levels were kept to a minimum to preclude receptor reserve effects.
(§2) For development of cAMP accumulation assays, recombinant IP or DP1 receptors were stably expressed in CHO-K1 cells and clonal cell lines derived following standard protocols. Receptor expression levels were minimized to preclude receptor reserve effects. HTRF cAMP assays were performed according to the manufacturer’s instructions (Cisbio, cAMP Dynamic 2 assay kit; no. 62AM4PEJ). IP receptor-expressing cells were harvested, resuspended in assay buffer (PBS containing 1 mM IBMX and 0.2% BSA) at a density of 200 000 cells per mL, and dispensed into 384-well assay plates (PerkinElmer Proxiplate no. 6008280) at 5 μL per well. Test compounds were solubilized and serially diluted in DMSO using 5-fold dilutions to generate a 10-point dose–response curve with a top concentration of 10 μM. The samples were then further diluted in PBS to achieve a 2× stock. Diluted compounds were then transferred to a triplicate set of assay plates (5 μL per well). After a 1 h incubation at room temperature, 5 μL of cAMP-D2 reagent diluted in lysis buffer was added to each well followed by 5 μL of cryptate reagent. Plates were then incubated at room temperature for 1 h prior to reading. Time-resolved fluorescence measurements were collected on PerkinElmer Envision or BMG Pherastar microplate readers.

EP2 = EP2 (Homo sapiens, UniProt P43116); test: cAMP HTRF agonist assay, EP2; assay type: cell-based; details: cAMP HTRF agonist assay
EP2, sequence (P43116 whole entry): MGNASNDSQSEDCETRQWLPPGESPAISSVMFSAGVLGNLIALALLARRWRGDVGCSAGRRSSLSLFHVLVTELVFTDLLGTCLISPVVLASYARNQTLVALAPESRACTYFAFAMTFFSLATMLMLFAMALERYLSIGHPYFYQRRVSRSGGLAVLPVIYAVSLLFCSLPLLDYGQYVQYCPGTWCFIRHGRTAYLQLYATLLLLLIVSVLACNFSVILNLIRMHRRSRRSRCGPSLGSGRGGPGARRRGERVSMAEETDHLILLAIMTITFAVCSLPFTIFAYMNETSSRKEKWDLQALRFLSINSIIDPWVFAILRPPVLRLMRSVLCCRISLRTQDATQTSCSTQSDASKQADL
Source text: (§3) Table Sup2: Data with some comparator compounds in functional assays. […]

EP4 = EP4 (Homo sapiens, UniProt P35408); test: cAMP HTRF agonist assay, EP4; assay type: cell-based; details: cAMP HTRF agonist assay
EP4, sequence (P35408 whole entry): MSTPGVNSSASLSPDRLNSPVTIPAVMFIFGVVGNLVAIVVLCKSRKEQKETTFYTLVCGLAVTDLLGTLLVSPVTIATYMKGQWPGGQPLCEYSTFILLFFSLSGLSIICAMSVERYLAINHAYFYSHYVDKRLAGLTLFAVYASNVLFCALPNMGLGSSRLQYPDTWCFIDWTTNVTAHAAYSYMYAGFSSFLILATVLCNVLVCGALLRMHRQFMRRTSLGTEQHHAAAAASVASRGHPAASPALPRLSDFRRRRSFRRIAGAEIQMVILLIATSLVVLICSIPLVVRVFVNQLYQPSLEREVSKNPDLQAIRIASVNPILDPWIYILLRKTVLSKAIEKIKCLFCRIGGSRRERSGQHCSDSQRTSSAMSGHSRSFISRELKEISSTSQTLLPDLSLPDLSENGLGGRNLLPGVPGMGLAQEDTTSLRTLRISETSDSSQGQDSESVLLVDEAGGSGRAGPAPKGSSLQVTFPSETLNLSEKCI
Source text: (§4) Table Sup2: Data with some comparator compounds in functional assays.
(§5) Compound DP1 EP1 EP2 EP3v6 EP4
(§6) EC50, µµµµM (% I.A) EC50, µµµµM (% I.A) EC50, µµµµM (% I.A) EC50, µµµµM (% I.A) EC50, µµµµM (% I.A)
(§7) n = 3 n = 2 n = 8 n = 6 n = 6 […]

EP1 = target: T2, EP1 (Homo sapiens, UniProt P34995); test: cAMP HTRF agonist assay, EP1; assay type: cell-based
T2 sequence (P34995 1-402): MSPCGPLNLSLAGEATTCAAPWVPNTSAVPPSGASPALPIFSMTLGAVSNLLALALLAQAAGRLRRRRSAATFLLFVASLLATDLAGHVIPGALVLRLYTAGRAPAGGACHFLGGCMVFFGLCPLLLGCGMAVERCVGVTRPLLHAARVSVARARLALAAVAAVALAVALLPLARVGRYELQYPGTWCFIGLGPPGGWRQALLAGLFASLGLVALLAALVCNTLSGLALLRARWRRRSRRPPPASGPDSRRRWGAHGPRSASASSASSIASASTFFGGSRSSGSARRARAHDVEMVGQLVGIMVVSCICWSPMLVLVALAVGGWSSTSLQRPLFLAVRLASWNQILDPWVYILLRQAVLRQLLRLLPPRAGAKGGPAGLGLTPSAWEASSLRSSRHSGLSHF
Source text: as §4, §5, §6, §7

human platelet = test: Inhibition of ADP-induced human platelet aggregation; assay type: cell-based; details: aggregation induced by 2.5 μM ADP, mean of at least two determinations
Method: Such aggregated and activated platelets produce vasoactive substances such as thromboxane and serotonin that may cause harmful vasoconstriction and vascular remodeling.[13] […] This secondary assay was carried out as previously described,[14] with aggregation induced by 2.5 μM ADP in the presence or absence of IP receptor agonists.

[1] = Stability in human microsome preparations; assay type: in vitro ADME; details: incubation at 37 °C, human microsomes; read-out: human MS, T1/2
Source text: (§8) Table 1 Screening Data for Selected Analogues ^a | column: human and rat MS, T1/2 (min) ^g

[2] = Stability in rat microsome preparations; assay type: in vitro ADME; details: incubation at 37 °C, rat microsomes; read-out: rat MS, T1/2
Source text: as §8

Rat PK (iv and oral) = assay type: in vivo; details: for AUC(0-inf) / bioavailability: Sprague-Dawley, plasma; for AUC(0-inf): after oral administration 10 mg/kg (5m 10.5); for bioavailability: po, 10 mg/kg; for Cmax / Tmax: po 10 mg/kg (5m 10.5); for T1/2: terminal half-life after iv 2 mg/kg (5m 2.1); for Clobs: total clearance, iv 2 mg/kg (5m 2.1)
IP [3] = target: T3, IP (Homo sapiens, UniProt P43119); test: HTRF cAMP assay, recombinant human IP receptor stably expressed in CHO-K1 cells; assay type: cell-based; set-up: expressed in transfected cells
T3 sequence (P43119 whole entry): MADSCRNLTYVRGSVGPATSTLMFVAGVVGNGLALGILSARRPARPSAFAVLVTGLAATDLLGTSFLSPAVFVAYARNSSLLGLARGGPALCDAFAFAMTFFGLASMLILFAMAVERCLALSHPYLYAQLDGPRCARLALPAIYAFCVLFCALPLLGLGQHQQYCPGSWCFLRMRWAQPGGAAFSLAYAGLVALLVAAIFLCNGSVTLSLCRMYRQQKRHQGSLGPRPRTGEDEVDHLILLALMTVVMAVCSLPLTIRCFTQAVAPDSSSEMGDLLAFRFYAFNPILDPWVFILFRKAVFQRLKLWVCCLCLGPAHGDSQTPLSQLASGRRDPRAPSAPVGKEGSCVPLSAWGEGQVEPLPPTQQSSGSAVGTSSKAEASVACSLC
Method: as §1, §2

rat IP = rat IP (Rattus norvegicus, UniProt P43253); test: HTRF cAMP assay, recombinant rat IP receptor; assay type: cell-based; set-up: expressed in transfected cells; details: for EC50: HTRF (cAMP) rat IP receptor assay, mean of at least three determinations; for Emax: read-out: rIP % IA
rat IP, sequence (P43253 whole entry): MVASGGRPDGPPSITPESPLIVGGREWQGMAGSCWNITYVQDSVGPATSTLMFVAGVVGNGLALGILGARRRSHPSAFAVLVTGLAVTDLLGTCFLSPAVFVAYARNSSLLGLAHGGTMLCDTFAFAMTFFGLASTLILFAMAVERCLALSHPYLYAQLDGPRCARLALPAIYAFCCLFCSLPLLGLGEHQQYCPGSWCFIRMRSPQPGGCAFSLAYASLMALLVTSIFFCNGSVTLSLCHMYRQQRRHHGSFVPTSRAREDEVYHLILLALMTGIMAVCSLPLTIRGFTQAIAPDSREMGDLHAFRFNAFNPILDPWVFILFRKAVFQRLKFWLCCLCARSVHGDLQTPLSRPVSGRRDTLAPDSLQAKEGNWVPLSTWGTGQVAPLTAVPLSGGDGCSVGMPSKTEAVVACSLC
Method: as §1, §2

EP3v6 = target: T4, EP3v6 (Homo sapiens, UniProt P43115); test: Melanophore dispersion assay, EP3v6; assay type: cell-based; set-up: expressed in transfected cells; host or cells: melanophores (transient, electroporation); details: melanophore dispersion assay (Gi)
T4 sequence (P43115 1-374 isoform P43115-4): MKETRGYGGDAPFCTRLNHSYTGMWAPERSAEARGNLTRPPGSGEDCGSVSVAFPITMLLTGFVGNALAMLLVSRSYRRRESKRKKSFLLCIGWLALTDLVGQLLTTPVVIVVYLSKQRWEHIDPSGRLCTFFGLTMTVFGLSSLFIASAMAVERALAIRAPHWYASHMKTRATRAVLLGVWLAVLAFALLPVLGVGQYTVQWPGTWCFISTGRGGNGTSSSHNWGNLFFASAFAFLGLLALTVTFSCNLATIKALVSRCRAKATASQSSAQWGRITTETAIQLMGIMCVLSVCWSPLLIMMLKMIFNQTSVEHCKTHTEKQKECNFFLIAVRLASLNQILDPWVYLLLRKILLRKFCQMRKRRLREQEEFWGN
Method: For the EP3v6 receptor functional assay, melanophores were transfected by electroporation using 20 μg of recombinant human EP3v6 receptor plasmid DNA per 400 μL of cell suspension. Transfected cells were immediately resuspended in fresh growth medium and plated in 384-well clear, polystyrene microplates. Plated cells were incubated at 27 °C for 48 h after transfection in order to achieve optimal receptor expression. To perform the assay, growth medium was removed from the assay plates and replaced with assay buffer (40 μL/well, 0.7× PBS, pH 7.3, supplemented with 20 nM melatonin to induce pigment aggregation). Following a 90 min incubation at room temperature, a 650 nm absorbance reading was collected and test compounds (10 μL per well) were transferred to the assay plates. Plates were incubated for 90 min at room temperature to allow compound-induced pigment redistribution to take place, and final absorbance reading was then collected. Test compounds were solubilized and serially diluted in DMSO, using 5-fold dilutions, to generate a 10-point dose–response curve with a top concentration of 10 μM (final assay concentration). Samples were then further diluted in assay buffer to achieve a 5× stock prior to addition to the assay plates. A SpectraMax absorbance plate reader (Molecular Devices, Inc.) was used for data collection.
as §3

[4] = test system: primary human pulmonary arterial smooth muscle cells; test: HTRF cAMP assay in primary human pulmonary arterial smooth muscle cells; assay type: cell-based
Method: Additional In Vitro Assays […]
Compounds were also evaluated in HTRF cAMP assays using primary human pulmonary arterial smooth muscle cells (Cell Applications, Inc., #352Kq05a, or ThermoFisher/Gibco, #C0095C) using the same basic assay protocol outlined in the Experimental section. Cells were cultured as recommended by the suppliers, used at low passage and seeded into 384qwell assay plates at a density of 700q900 cell per well

IP [5] = target: T3, IP; test: Recombinant human IP receptor cAMP assay after elimination of receptor reserve (transient CHO); assay type: cell-based; set-up: expressed in transfected cells; details: following elimination of receptor reserve
Source text: Additional In Vitro Assays
To determine the potency and efficacy of compounds in cAMP assays in the absence of receptor reserve effects, the cDNA sequence of the human IP receptor was subqcloned into an expression plasmid containing a ubiquitin promoter in place of the more commonly used CMV promoter. The ubiquitin […]
level of receptor expression after transfection into a suitable cell line. This plasmid was transiently transfected into CHO cells using lipofectamine, following standard protocols. The quantity of transfected plasmid DNA was titrated down from 16 µg to 1 ng per transfection using empty vector as carrier DNA.

[6] = cAMP HTRF agonist assay (Gs), Table Sup2
[7] = cAMP HTRF agonist assay (Gs), Table Sup2, read-out: DP1 EC50
[8] = HTRF (cAMP) human DP1 receptor assay, mean of at least three determinations, read-out: EC50 hDP1
[9] = HTRF (cAMP) human IP receptor assay; mean of at least three determinations

| SMILES | DP1 % I.A (human DP1 receptor; [6]) [%] | EC50 (human DP1 receptor; [7]) [nM] | EC50 (EP2) [nM] | EP2 % I.A (EP2) [%] | EC50 (EP4) [nM] | EC50 (EP1) [nM] | Emax (human DP1 receptor) [%] | EC50 (human DP1 receptor; [8]) [nM] | IC50 (human platelet) [nM] | half-life [1] [h] | half-life [2] [h] | AUC(0-inf) (Rat PK (iv and oral)) [ng·h/mL] | bioavailability (Rat PK (iv and oral)) [%] | Cmax (Rat PK (iv and oral)) [ng/mL] | Tmax (Rat PK (iv and oral)) [h] | T1/2 (Rat PK (iv and oral)) [h] | Clobs (Rat PK (iv and oral)) [L h^–1 kg^–1] | Emax (IP [3]; CHO-K1; read-out: hIP % IA) [%] | EC50 (IP [3]; [9]) [nM] | EC50 (rat IP) [nM] | also measured |
| --- | --- | --- | --- | --- | --- | --- | --- | --- | --- | --- | --- | --- | --- | --- | --- | --- | --- | --- | --- | --- | --- |
| O=C(O)CCCCCCC1C(=O)NC(=O)N1CCC(O)C1CCCCC1 (centres unmarked) [BW245C] | 98 | 0.8 | 790 | 73 | > 10000 | – | – | – | – | – | – | – | – | – | – | – | – | – | – | – | – |
| CCCCC[C@H](O)/C=C/[C@H]1C(=O)C[C@H](O)[C@@H]1C/C=C\CCCC(=O)O [PGD2] | – | 1.3 | > 10000 | – | – | > 10000 | – | – | – | – | – | – | – | – | – | – | – | – | – | – | – |
| O=C(O)COC[C@H]1CC[C@H](COC(=O)N(c2ccccc2)c2ccc(F)cc2)CC1 [5l, 2-(((1r,4r)-4-(((4-Fluorophenyl)(phenyl)carbamoyloxy)methyl)cyclohexyl)methoxy)acetic Acid] | – | – | – | – | – | – | 55 | 620 | 12 | > 1 | > 1 | 7900 | 100 | 1200 | 0.3 | 3.9 | 1.8 | 89 | 6.6 | 535 | Emax (rat IP): 91% |
| CCCCC[C@H](O)/C=C/[C@H]1[C@H](O)CC(=O)[C@@H]1C/C=C\CCCC(=O)O [PGE2] | – | 520 | – | 84 | – | 51 | – | – | – | – | – | – | – | – | – | – | – | – | – | – | EP1 % I.A (EP1): 92%; EP3v6 % I.A (EP3v6): 100% |
| CC(C)N(CCCCOCC(=O)O)c1cnc(-c2ccccc2)c(-c2ccccc2)n1 [compound 2, MRE269] | 80 | – | > 10000 | – | > 10000 | – | 80 | 154 | 288 | – | – | – | – | – | – | – | – | – | 22 | – | Efficacy (% vs. Iloprost) [95% CI], primary human PASMC cAMP [4]: 41 [33, 49] %; EC50 ([4]; Homo sapiens, PASMC, n = 8, read-out: EC50 [95% CI], primary human PASMC cAMP): 184 nM; Emax (IP [3]; CHO-K1, read-out: hIP % IA): 60%; Efficacy (% vs. Iloprost) [95% CI], recombinant IP receptor cAMP (IP [5]): 48 [43, 53] %; EC50 (IP [5]; n = 9, read-out: EC50 [95% CI], recombinant IP receptor cAMP): 151 nM; EC50 (EP3v6): > 10000 nM |
| COc1cccc(N(C(=O)OC[C@H]2CC[C@H](COCC(=O)O)CC2)c2ccccc2)c1 [5j, 2-(((1r,4r)-4-(((3-Methoxyphenyl)(phenyl)carbamoyloxy)methyl)cyclohexyl)methoxy)acetic Acid] | – | – | – | – | – | – | 68 | 1720 | 23 | > 1 | 0.883 | 1900 | 86 | 900 | 0.3 | 3.3 | 5.1 | 92 | 12 | 470 | Emax (rat IP): 94% |
